Measured values reported in patent US20250170101A1, “MONOACYLGLYCEROL LIPASE INHIBITORS AND USE THEREOF FOR THE TREATMENT AND MANAGEMENT OF PAIN AND RELATED CONDITIONS” (Psy Therapeutics, Inc., priority 2021, published 2025).

Columns and labels:
[1] = Pharmacokinetic study of compounds in mice, Example 25; type: in vivo, male C57BL/6 mice; conditions: Brain, Oral, 5 mg/kg
Method: Healthy male C57BL/6 mice (8-12 weeks old) weighing between 17 to 35 g were procured from Global, India. Temperature and humidity were maintained at 22±3° C. and 30-70%, respectively and illumination was controlled to give a sequence of 12 hr light and 12 hr dark cycle. Temperature and humidity were recorded by auto-controlled data logger system. All the animals were provided laboratory rodent diet. Reverse osmosis water treated with ultraviolet light was provided ad libitum.
Protocol A: Twenty-four male mice were divided into two groups as; Group 1: 30 mg/kg/IP; Plasma and brain; Number of animals=12; Animal #1-12. Group 2: 30 mg/kg/PO; Plasma and brain; Number of animals=12; Animal #13-24. […] All samples were processed for analysis by protein precipitation using acetonitrile and analyzed with fit-for-purpose LC/MS/MS method (LLOQ—2.02 ng/mL for plasma and 6.06 ng/g for brain). Pharmacokinetic parameters were calculated using the non-compartmental analysis tool of Phoenix WinNonlin®.
Protocol B: Thirty six mice were included into the study and divided in to three groups as Group 1 (n=12), Group 2 (n=12) and Group 3 (n=12) with n=2 mice per time-point design. […] Plasma and brain samples were quantified by fit-for-purpose LC-MS/MS method (LLOQ: 1.01 ng/mL for plasma and 2.02 ng/mL for brain). […]

MAGL enzyme = target: T1, MAGL enzyme (Homo sapiens, UniProt Q99685); test: MAGL reversible inhibition assay (washout), Example 22; type: biochemical; set-up: % MAGL activity returning after washout: concentration or dose not given beside the values
T1 sequence (Q99685 1-303): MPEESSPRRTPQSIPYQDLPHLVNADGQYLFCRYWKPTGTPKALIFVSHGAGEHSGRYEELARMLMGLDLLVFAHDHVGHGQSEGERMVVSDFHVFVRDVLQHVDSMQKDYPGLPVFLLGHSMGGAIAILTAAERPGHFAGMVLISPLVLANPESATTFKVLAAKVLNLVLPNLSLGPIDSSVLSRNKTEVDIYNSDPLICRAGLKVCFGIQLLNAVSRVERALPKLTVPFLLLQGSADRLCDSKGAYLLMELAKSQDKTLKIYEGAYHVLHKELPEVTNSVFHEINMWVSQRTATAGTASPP
Method: The reversible mechanism of MAGL inhibition of a test compound of Formula (I) can be determined. Flag-tagged MAGL enzyme will be immobilized on anti-Flag beads. Immobilized enzyme will be incubated+/−inhibitor at a dose that produces complete inhibition. Colorimetric substrate (4-NPA) will be added and the reaction monitored on a plate reader for 30 minutes to verify complete inhibition. Immobilized enzyme will then be washed thoroughly to remove the inhibitor, and fresh substrate will be added. The reaction will be monitored for an additional 30 minutes; returning enzymatic activity will indicate reversibility of inhibition. […]
For some test compounds, % activity returning after washout may be less than 100%/if complete compound unbinding takes longer than 30 minutes.

2-AG levels in brain = test: Estimation of 2-AG in mouse brain after single intraperitoneal administration, Examples 23 and 24; type: in vivo, male C57BL/6 mice; conditions: single IP
Method: (§1) This experiment was performed to determine plasma pharmacokinetics and estimate 2-AG levels in male C57BL/6 mice brain following a single intraperitoneal administration of Compound-74 (Dose: 5, 15, 50 and 150 mg/kg). The experiment was repeated at 150 mg/kg on 3 separate test dates to obtain the data shown in FIG. 1A (plasma and brain concentration of Compound 74 30 minutes after IP injection), and on the first and third test dates to obtain the data shown in FIG. 1B (brain concentration of 2-AG30 minutes after IP injection of Compound 74). • Compound 74, Molecular Wt.: 405.46 (Freebase), % Purity: Considered 100%. • Formulation: DMSO • Dose: 5, 15, 50 and 150 mg/kg • Dose volume: 2 mL/kg • Feeding regimen: freely fed • Groups:
Study Design: A total of thirty male mice were used into the study and divided in to five groups with six mice in each group (n=6 mice/group/treatment design). Animals in Group 1 to Group 4 were administered intraperitoneally with Compound 74 solution formulation at 5, 15, 50 and 150 mg/kg dose, respectively. Animals in Group 5 were administered intraperitoneally with vehicle at 2 mL/kg dose. Blood and brain samples were collected at 0.5 h post dose. […]
Analysis: Brain samples were processed for 2-AG estimation. 2-AG levels were the detected values. Plasma concentrations were determined by fit for purpose LC-MS/MS method. […]

[2] = Plasma and brain concentrations after single intraperitoneal administration, Examples 23 and 24; type: in vivo, male C57BL/6 mice; conditions: 0.5 h
Method: as §1
Study Design: A total of thirty male mice were used into the study and divided in to five groups with six mice in each group (n=6 mice/group/treatment design). Animals in Group 1 to Group 4 were administered intraperitoneally with Compound 74 solution formulation at 5, 15, 50 and 150 mg/kg dose, respectively. Animals in Group 5 were administered intraperitoneally with vehicle at 2 mL/kg dose. Blood and brain samples were collected at 0.5 h post dose. Mice were euthanized by cervical dislocation and brain samples were dissected rapidly and snap frozen in liquid nitrogen, weighed and homogenized in 2 mL of acetonitrile containing 2-AGd5. Blood samples were centrifuged at 4000 rpm for 10 minutes at 4° C. Plasma was harvested and separated in pre-labeled tubes. All samples were stored below −70° C. until bioanalysis.
Analysis: Brain samples were processed for 2-AG estimation. 2-AG levels were the detected values. Plasma concentrations were determined by fit for purpose LC-MS/MS method. LLOQ: 5.09 ng/mL (Plasma and brain)
This experiment was performed to determine plasma pharmacokinetics and estimate 2-AG levels in male C57BL/6 mice brain following a single intraperitoneal administration of Compound-473 (Dose: 20 mg/kg). • Compound 473, Molecular Wt.: 463.41 (Freebase), % Purity: >98%. • Formulation: DMSO • Dose: 20 mg/kg • Dose volume: 10 mL/kg • Feeding regimen: Food and water ad libitum • Groups:
Study Design: A total of twelve C57BL/6 male mice were used in this study. Six animals were administered intraperitoneally with solution formulation of PSY-05-00473-002 at 20 mg/kg dose. Six animals were administered vehicle (5% NMP, 5% Solutol HS15 and 90% Normal saline) intraperitoneally at 10 mL/kg dose volume. Blood samples (approximately 60 μL) were collected under light isoflurane anesthesia from a set of six mice at 0.5 h. Plasma was harvested by centrifugation of blood and stored at −70±10° C. until analysis. After blood collection, mice were euthanized by cervical dislocation and brain samples were dissected rapidly and snapped frozen in liquid nitrogen and stored at −80. To homogenize, removed brain samples from the freezer, were divided into two equal hemispheres and weighed while still in frozen condition, and begun homogenization/extraction procedure without allowing the brain samples to thaw. One part is used for PK estimation and the other part is used for 2-AG estimation.
Analysis: For PK estimation, brain samples were homogenized in 2 volumes of PBS of brain weight. Total homogenate volume was three times of the brain weight. For 2-AG estimation, the frozen brain samples were homogenized in 2 mL acetonitrile containing 2-AGd5 (8.88 nmoles) will be incubated overnight at −20° C. to precipitate proteins. Blood samples were centrifuged at 10000 rpm for 10 minutes at 4° C. All samples were stored below −70° C. until bioanalysis. Plasma and brain homogenate samples were quantified by fit-for-purpose LC-MS/MS method (LLOQ: 1.02 ng/mL for plasma and 2.03 ng/mL for brain).

[3] = test system: Acute Post-Operative Pain (Brennan) mice model; test: Acute Post-Operative Pain (Brennan) mice model, Example 26; type: in vivo, Mus Musculus C57BL/6; conditions: 50 & 150 mg/kg, IP; at 30, 60 & 90 min
From the text: The aim of this experiment was to evaluate effect of the test compounds Compound 74 and JZL-184 in Acute Post-Operative Pain (Brennan) mice model. • Mouse model: Mus Musculus & C57BL/6, male, 6-8 weeks • End points: mechanical allodynia and brain 2-AG (optional)
(§2) • Animals was anaesthetized under Isoflorane anesthesia. • Using aseptic conditions, prepared the plantar aspect of left hind paw with a 10% povidone-iodine solution and place the paw through a hole in a sterile cloth drape. Made a 0.5-cm longitudinal incision through skin and fascia of the paw with a no. 11 scalpel blade, beginning 0.2 cm from the proximal edge of the heel and extending toward the digits. • Elevated the underlying muscle with small curved forceps and incised longitudinally with the scalpel blade, keeping the muscle origin and insertion intact. • After homeostasis with gentle pressure, apposed the skin with 5-0 slik sutures. Cover the wound site.

[4] = test system: Post-Operative Pain (Brennan) mouse model; test: Chronic treatment in Post-Operative Pain (Brennan) mouse model, Example 27; type: in vivo, Mus Musculus C57BL/6; conditions: IP
From the text: The aim of this experiment was to evaluate effect of the test compounds Compound 74 and JZL-184 in after Chronic treatment in a Post-Operative Pain (Brennan) mouse model. • Mouse model: Mus Musculus & C57BL/6, male, 6-8 weeks • End points: mechanical allodynia and body weight
as §2

Row | Compound | AUClast [1] [ng·h/mL] | degree to which MAGL enzymatic activity returned following washout of test compounds (MAGL enzyme; pre-washout compound concentration 1 μM) | % MAGL activity returning after washout (MAGL enzyme; relative to control (no inhibitor before washout), immediately following 30 minute washout) [%] | levels of 2-AG compared to baseline (vehicle treatment) (2-AG levels in brain; 5 and 15 mg/kg dose) | levels of 2-AG compared to baseline (vehicle treatment) (2-AG levels in brain; 50 and 150 mg/kg dose groups) | Brain Plama Ratio (Kp) range ([2]; IP 5 mg/kg) | Plasma concentration range ([2]; IP 5 mg/kg) [ng/mL] | Brain Plama Ratio (Kp) range ([2]; IP 15 mg/kg) | Brain concentration range ([2]; IP 15 mg/kg) [ng/g] | Plasma concentration range ([2]; IP 15 mg/kg) [ng/mL] | Brain Plama Ratio (Kp) range ([2]; IP 50 mg/kg) | Plasma concentration range ([2]; IP 50 mg/kg) [ng/mL] | Brain Plama Ratio (Kp) range ([2]; IP 150 mg/kg) | Brain concentration range ([2]; IP 150 mg/kg) [ng/g] | Plasma concentration range ([2]; IP 150 mg/kg) [ng/mL] | mechanical allodynia (Threshold, g) vs Vehicle control [3] | mechanical allodynia (Threshold, g) vs Vehicle control ([4]; 50 mg/kg, QD×8 days) | mechanical allodynia (Threshold, g) vs Vehicle control ([4]; 50 & 150 mg/kg, single dose)
1 | Cc1cnn(C2CC3(C2)CN(C(=O)c2cc(O)ccc2F)C3)c1-c1cc(F)ccc1F (single isomer, unassigned) [Compound 476, {6-[5-(2,5-difluorophenyl)-4-methyl-1-pyrazolyl]-2-aza-2-spiro[3.3]heptyl}(2-fluoro-5-hydroxyphenyl)methanone] | 223.64 | – | – | – | – | – | – | – | – | – | – | – | – | – | – | – | – | –
2 | Cc1cc(C2CC3(C2)CN(C(=O)c2cc(O)ccc2F)C3)n(-c2ccccc2C)n1 [Compound 74, (2-fluoro-5-hydroxyphenyl)(6-(3-methyl-1-(o-tolyl)-1H-pyrazol-5-yl)-2-azaspiro[3.3]heptan-2-yl)methanone] | – | 162 | >50 | elevated slightly | significant increase | 0.51-0.68 | 12 to 186 | 0.16-0.44 | 25 to 67 | 70 to 414 | 0.06-0.08 | 447 to 14914 | 0.07-0.20 | 2412 to 12111 | 34920 to 70256 | significant decrease in mechanical allodynia | significant decrease in mechanical allodynia | significant decrease in mechanical allodynia
